Here are results for 20 compounds from ChEMBL document CHEMBL1147673, “NO-donor phenols: a new class of products endowed with antioxidant and vasodilator properties” (J Med Chem, 2006).

The target of one test is T1, Alpha-1D adrenergic receptor (Rattus norvegicus) (UniProt P23944).
T1 sequence (whole entry): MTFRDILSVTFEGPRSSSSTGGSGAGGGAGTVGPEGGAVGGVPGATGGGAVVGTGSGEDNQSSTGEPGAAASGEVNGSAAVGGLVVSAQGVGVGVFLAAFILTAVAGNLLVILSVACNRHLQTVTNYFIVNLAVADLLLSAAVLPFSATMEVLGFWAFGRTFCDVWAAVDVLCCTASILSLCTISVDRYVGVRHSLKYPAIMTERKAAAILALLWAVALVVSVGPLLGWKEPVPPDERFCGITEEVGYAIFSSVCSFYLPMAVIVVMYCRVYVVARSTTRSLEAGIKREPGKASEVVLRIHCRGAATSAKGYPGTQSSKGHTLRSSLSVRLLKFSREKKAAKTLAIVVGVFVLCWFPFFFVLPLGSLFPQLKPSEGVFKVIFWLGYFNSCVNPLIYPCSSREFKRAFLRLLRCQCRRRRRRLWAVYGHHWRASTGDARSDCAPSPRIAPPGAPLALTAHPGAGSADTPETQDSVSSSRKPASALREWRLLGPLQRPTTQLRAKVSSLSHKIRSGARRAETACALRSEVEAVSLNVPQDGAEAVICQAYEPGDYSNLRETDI
The experiment in a line: Vasodilator activity assessed as ability to relax phenylephrine-induced contraction of Wistar rat aortic strips at 30 uM in presence of 1 uM ODQ. As to conditions: Aorta; call rule not given here. Also on record: scale not given: the % may be the effect or the level left. Type of test: functional, tissue-based.
Regarding `CC(C)(C)c1cc(CC(CO[N+](=O)[O-])[N+](=O)[O-])cc(C(C)(C)C)c1O` (stereo unspecified), the Activity was determined as 24%.

In a further test the test system is Radical scavenging activity. The experiment in a line: Antioxidant activity assessed as inhibition of TBARS production in ferrous salt/ascorbate-induced lipid peroxidation in Wistar rat liver microsomal membrane.
Details: not given
Format: functional, microsomes. (In general: Microsomes from liver hold many membrane-bound enzymes, among them those of drug oxidation.)
A word on the IC50: it is the point on the concentration scale where inhibition reaches its midpoint. For the compound `COc1cc(CCCO[N+](=O)[O-])cc(OC)c1O`, the concentration for half-maximal inhibition (IC50) was 5900 nM.

With `CC(C)(C)c1cc(CCCO[N+](=O)[O-])cc(C(C)(C)C)c1O`, the IC50 came to 2000 nM.

Regarding `COc1cc(C)cc(OC)c1O`, the IC50 was 18000 nM.

With `O=[N+]([O-])OCC(Cc1ccc(O)cc1)[N+](=O)[O-]` (stereo unspecified), the concentration for half-maximal inhibition (IC50) stood at 185000 nM.

As to `O=S(=O)(c1ccccc1)c1c(OCCCc2ccc(O)cc2)no[n+]1[O-]`, the concentration for half-maximal inhibition (IC50) is 47000 nM.

On to `COc1cc(CCCOc2no[n+]([O-])c2S(=O)(=O)c2ccccc2)cc(OC)c1O`, for which the concentration for half-maximal inhibition (IC50) stood at 3400 nM.

For `CCOc1no[n+]([O-])c1S(=O)(=O)c1ccccc1`, the IC50 was found to be 110000 nM.

On to `Cc1c(C)c2c(c(C)c1O)CCC(C)(COCCCO[N+](=O)[O-])O2` (stereo unspecified), for which the IC50 is 150 nM.

`Cc1c(C)c2c(c(C)c1O)CCC(C)(CN(C)Cc1no[n+]([O-])c1C(N)=O)O2` (stereo unspecified): the IC50 came to 140 nM.

For `CC(C)(C)c1cc(CCCOc2no[n+]([O-])c2S(=O)(=O)c2ccccc2)cc(C(C)(C)C)c1O`, the concentration for half-maximal inhibition (IC50) was 2000 nM.

Take `O=[N+]([O-])OCCCc1ccc(O)cc1`: the IC50 was 143000 nM.

With `Cc1cc(C(C)(C)C)c(O)c(C(C)(C)C)c1` [BUTYLATED HYDROXYTOLUENE], the IC50 was 1700 nM.

Turning to `COc1cc(CC(CO[N+](=O)[O-])[N+](=O)[O-])cc(OC)c1O` (stereo unspecified), the concentration for half-maximal inhibition (IC50) was 5400 nM.

Turning to `CC(C)(C)c1cc(CC(CO[N+](=O)[O-])[N+](=O)[O-])cc(C(C)(C)C)c1O` (stereo unspecified), the IC50 worked out at 2600 nM.

Consider `Cc1c(C)c2c(c(C)c1O)CCC(C)(COc1no[n+]([O-])c1S(=O)(=O)c1ccccc1)O2` (stereo unspecified), for which the IC50 stood at 490 nM.

For `CN(CCCc1cc(C(C)(C)C)c(O)c(C(C)(C)C)c1)Cc1no[n+]([O-])c1C(N)=O`, the IC50 was determined as 1200 nM.

Turning to `Cc1c(C)c2c(c(C)c1O)CCC(C)(C)O2` [APC-100], the IC50 was 170 nM.

`Cc1ccc(O)cc1` [p-CRESOL]: the 50% inhibitory concentration (IC50) amounted to 290000 nM.

The next test deals with Radical scavenging activity. The experiment in a line: Antioxidant activity assessed as inhibition of TBARS production in ferrous salt/ascorbate-induced lipid peroxidation in Wistar rat liver microsomal membrane at 1 mM. Type of test: functional, microsomes.
Details: not given
On to `NC(=O)c1c(CO)no[n+]1[O-]`, for which the IC50 result is on record as “Not Active”.

Consider `CN(C)Cc1no[n+]([O-])c1C(N)=O`, for which the IC50 entry is reported as “Not Active”.
